From ChEMBL document CHEMBL1201862, “PubChem BioAssay data set” (2004)
Activity calls are given as the source filed them.

Legend:
[1] = molecular target: T1, Replicative DNA helicase DnaB (Mycobacterium tuberculosis, UniProt P9WMR3); assay: DnaB intein splicing inhibitors, dose response, biochemical, cell-free fluorescence (AID 449749); assay type: functional
T1 sequence (P9WMR3 whole entry): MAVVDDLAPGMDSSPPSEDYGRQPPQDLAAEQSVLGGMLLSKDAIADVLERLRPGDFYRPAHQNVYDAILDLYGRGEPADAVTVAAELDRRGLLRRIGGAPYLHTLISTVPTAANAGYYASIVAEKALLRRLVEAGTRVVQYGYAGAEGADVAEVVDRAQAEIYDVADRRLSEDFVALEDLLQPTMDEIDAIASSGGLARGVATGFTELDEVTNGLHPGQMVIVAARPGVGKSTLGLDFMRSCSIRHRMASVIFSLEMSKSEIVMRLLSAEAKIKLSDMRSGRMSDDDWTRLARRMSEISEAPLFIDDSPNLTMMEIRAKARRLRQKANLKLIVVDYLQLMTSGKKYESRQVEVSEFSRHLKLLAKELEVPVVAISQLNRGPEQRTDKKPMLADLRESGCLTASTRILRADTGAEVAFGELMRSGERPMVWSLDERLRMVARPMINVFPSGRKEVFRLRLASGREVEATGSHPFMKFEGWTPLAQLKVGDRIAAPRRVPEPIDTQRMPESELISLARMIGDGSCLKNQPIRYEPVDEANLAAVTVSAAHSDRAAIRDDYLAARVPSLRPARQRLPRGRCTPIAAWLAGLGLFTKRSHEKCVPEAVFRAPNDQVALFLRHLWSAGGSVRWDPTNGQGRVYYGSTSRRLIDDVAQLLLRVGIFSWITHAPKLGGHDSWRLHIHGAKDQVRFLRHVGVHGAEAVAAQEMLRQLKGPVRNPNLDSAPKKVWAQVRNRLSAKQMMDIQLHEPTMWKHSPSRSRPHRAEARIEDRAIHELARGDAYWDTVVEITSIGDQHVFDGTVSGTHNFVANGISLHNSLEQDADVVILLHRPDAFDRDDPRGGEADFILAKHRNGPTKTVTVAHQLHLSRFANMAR

Protein RecA = molecular target: T2, Protein RecA (Mycobacterium tuberculosis, UniProt P9WHJ3); assay: Fluorescence Cell-Free Homogeneous Dose Retest to Identify Inhibitors of RecA-Intein Splicing Activity. [Related pubchem assays (depositor defined):AID2097, AID2223, AID489010, AID492950]; assay type: functional
T2 sequence (P9WHJ3 whole entry): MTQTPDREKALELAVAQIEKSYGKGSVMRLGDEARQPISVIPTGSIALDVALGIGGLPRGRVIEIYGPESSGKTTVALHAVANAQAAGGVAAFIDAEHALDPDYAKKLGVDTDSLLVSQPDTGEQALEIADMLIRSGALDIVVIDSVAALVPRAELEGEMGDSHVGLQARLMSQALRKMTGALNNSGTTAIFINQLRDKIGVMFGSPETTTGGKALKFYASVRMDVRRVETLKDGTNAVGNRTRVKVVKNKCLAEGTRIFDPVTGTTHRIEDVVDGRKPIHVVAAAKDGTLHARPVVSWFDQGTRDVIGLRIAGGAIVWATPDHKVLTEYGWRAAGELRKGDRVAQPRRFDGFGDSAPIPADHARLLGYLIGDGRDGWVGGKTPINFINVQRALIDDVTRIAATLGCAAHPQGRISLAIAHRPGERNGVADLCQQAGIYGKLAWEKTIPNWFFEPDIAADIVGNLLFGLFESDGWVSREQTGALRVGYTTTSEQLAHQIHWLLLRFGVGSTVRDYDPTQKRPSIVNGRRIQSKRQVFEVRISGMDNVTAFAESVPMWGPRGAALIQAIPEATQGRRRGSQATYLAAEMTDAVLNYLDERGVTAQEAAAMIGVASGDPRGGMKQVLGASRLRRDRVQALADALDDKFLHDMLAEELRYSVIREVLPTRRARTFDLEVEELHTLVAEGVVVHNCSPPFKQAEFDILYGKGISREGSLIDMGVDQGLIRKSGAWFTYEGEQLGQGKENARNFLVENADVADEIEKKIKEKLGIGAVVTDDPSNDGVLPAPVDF

[2] = molecular target: T3, Ubiquitin-conjugating enzyme E2 N (Homo sapiens, UniProt P61088); assay type: functional;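 also: Dose-response confirmation in a TR-FRET assay detecting UBC13-driven polyubiquitin chain formation, inhibition measured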
T3 sequence (P61088 whole entry): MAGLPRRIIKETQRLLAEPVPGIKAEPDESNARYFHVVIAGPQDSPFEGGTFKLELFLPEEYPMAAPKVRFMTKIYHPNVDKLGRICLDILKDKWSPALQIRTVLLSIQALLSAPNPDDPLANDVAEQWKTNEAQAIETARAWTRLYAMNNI

[3] = molecular target: T4, Apoptotic protease-activating factor 1 (Homo sapiens, UniProt O14727); assay type: functional
T4 sequence (O14727 whole entry): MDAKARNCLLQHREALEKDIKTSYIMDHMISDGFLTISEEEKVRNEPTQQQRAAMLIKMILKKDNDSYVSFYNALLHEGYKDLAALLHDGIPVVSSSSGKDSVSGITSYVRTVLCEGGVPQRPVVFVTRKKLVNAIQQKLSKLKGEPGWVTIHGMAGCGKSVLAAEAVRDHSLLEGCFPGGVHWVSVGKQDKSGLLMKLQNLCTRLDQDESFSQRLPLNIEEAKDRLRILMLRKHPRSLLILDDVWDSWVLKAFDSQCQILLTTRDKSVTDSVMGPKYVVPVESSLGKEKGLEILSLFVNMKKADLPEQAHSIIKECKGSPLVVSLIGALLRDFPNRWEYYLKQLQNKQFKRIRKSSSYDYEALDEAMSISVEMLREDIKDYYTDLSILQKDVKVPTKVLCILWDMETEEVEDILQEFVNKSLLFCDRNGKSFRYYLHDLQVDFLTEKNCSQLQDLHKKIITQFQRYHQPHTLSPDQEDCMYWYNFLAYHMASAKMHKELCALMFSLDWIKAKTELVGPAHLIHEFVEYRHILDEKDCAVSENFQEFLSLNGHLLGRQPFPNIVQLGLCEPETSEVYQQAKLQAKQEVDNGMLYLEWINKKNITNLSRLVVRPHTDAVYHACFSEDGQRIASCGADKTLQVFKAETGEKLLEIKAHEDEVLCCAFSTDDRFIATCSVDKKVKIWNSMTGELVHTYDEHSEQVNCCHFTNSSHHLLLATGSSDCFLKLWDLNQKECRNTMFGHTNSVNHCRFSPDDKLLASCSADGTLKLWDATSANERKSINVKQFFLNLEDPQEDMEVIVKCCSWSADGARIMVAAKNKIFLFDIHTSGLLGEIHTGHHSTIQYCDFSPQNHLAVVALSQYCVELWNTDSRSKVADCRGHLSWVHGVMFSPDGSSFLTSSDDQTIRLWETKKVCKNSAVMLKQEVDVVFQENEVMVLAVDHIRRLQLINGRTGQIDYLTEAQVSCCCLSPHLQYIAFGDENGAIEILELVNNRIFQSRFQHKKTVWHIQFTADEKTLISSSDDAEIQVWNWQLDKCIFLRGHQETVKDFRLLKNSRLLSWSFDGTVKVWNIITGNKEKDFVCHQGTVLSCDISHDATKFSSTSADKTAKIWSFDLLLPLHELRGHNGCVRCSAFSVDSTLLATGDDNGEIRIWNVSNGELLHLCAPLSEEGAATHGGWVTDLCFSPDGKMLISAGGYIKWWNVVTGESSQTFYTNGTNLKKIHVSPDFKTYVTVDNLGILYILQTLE

SN12K1 = assay: cells; assay type: functional; details: Homo sapiens
P388 = assay: cells; assay type: functional; details: Mus musculus
P388/ADR = assay: cells; assay type: functional; details: Mus musculus
[4] = molecular target: T5, Microphthalmia-associated transcription factor (Homo sapiens, UniProt O75030); assay: TRPM1 promoter luciferase signal decrease, dose response, MITF inhibitor project, cell-based, SK-MEL-5, cherry-picked, set 3 (AID 493073); assay type: functional
T5 sequence (O75030 whole entry): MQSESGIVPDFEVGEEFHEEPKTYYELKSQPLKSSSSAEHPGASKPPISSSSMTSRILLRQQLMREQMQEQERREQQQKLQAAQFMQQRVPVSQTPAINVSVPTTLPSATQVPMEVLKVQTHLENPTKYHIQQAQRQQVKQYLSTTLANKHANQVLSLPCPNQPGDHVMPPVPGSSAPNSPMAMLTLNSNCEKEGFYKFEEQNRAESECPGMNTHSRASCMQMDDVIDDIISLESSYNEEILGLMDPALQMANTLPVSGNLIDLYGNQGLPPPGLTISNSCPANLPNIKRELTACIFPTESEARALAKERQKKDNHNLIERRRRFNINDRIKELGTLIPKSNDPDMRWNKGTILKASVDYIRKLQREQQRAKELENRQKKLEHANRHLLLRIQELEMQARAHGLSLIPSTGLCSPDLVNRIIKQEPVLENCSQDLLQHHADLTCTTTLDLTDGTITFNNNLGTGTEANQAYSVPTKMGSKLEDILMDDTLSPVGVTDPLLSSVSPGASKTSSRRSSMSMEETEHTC

[5] = molecular target: Luciferin 4-monooxygenase (Photinus pyralis, UniProt P08659); assay: firefly luciferase enzyme inhibitors, dose response, biochemical, luminescence (AID 1891)
Luciferin 4-monooxygenase, sequence (P08659 whole entry): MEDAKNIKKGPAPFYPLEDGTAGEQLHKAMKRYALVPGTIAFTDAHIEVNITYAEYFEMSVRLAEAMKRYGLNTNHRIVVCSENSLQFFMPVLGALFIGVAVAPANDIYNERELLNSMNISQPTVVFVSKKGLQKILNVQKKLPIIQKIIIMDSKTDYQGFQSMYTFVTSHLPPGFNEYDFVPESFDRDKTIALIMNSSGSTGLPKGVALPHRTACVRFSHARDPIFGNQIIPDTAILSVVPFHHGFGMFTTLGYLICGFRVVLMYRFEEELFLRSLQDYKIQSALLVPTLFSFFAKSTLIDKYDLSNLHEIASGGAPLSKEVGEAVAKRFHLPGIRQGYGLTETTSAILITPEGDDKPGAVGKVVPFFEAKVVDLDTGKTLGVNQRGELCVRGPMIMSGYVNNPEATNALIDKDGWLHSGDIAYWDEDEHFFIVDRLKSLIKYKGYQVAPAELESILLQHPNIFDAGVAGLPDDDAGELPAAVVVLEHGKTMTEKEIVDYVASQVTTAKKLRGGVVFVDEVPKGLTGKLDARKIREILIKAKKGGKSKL

[6] = Luminescence Cell-Based Dose Confirmation HTS to Identify Inhibitors of Platelet Dense Granule Release. [Related pubchem assays: 1663 (Primary HTS), 1678 (Summary of Project)]; assay type: functional
Cytochrome P450 1A2 = molecular target: T6, Cytochrome P450 1A2 (Homo sapiens, UniProt P05177);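 also: PubChem cytochrome P450 panel assay, CYP1A2 panel member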
T6 sequence (P05177 whole entry): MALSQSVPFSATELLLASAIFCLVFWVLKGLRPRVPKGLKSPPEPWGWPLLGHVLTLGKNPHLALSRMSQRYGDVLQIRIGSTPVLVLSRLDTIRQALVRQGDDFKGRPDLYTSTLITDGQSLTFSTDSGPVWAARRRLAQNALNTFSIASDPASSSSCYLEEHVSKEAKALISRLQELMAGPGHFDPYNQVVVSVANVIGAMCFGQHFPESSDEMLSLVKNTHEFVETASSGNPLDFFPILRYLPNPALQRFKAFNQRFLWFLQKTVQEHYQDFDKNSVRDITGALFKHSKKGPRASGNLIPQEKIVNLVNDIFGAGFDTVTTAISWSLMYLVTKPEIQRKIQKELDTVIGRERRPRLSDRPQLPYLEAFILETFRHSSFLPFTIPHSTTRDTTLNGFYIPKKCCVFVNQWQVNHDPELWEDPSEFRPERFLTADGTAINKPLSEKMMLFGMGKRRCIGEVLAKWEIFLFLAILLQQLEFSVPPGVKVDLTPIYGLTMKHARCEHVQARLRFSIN

Nonstructural protein 1 = Nonstructural protein 1 (Influenza A virus, UniProt Q194T2); assay type: functional, Influenza A virus (A/California/07/2009(H1N1))
Nonstructural protein 1, sequence (Q194T2 whole entry): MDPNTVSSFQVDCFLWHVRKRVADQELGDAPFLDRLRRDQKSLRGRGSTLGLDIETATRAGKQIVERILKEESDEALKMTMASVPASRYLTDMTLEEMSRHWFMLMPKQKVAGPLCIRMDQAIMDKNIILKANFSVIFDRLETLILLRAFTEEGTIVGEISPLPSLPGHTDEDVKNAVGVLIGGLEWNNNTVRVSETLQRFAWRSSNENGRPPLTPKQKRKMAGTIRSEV

Paired box protein Pax-8 = Paired box protein Pax-8 (Homo sapiens, UniProt Q06710); assay: inhibitors of PAX8-driven TPO luciferase reporter, dose response, RMG-I cells, cherry-pick (AID 687027); assay type: functional, cell-based;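 also: luciferase reporter driven by Pax8 target thyroperoxidase promoter measured by SteadyGlo luminescence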
Paired box protein Pax-8, sequence (Q06710 whole entry): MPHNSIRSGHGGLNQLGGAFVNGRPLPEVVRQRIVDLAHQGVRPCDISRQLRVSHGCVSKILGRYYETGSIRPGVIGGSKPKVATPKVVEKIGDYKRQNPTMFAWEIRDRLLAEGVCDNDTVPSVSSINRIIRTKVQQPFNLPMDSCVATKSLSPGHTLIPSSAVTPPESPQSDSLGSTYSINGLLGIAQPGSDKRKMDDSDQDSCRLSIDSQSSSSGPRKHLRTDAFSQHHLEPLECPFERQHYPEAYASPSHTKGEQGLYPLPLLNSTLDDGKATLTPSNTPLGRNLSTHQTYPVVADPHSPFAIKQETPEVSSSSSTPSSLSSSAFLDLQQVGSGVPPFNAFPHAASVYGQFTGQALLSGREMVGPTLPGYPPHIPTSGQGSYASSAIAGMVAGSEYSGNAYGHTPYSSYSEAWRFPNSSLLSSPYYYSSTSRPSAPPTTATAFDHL

With `CC1=NN(c2ccccc2)C(=O)C1=C(C)C` the AC50 [1] was 5.6 µM (active) and the EC50 (Protein RecA) was 2.46 µM (active).
With `CCCc1n[nH]c(O)c1C(c1ccc(Cl)cc1)C(C#N)C#N` (stereo not drawn) the AC50 [1] was 8.44 µM (active) and the EC50 (Protein RecA) was 4.14 µM (active).
With `COC(=O)C1=C(C)N(Cc2ccccc2)C(NCCc2c[nH]c3ccccc23)=N[C@H]1c1cccc(C(F)(F)F)c1` the IC50 [2] was > 20 µM (inactive) and the IC50 [3] was 71 µM (active).
For `COc1ccccc1OCCNC(=O)c1cccc(S(=O)(=O)N2CCN(Cc3ccccc3)CC2)c1`, the IC50 [2] was > 20 µM (inactive) and the IC50 [3] was > 100 µM (inactive).
For `O=C(c1ccc(N2CCN(CCO)CC2)nc1)N1CCOCC1`, the AC50 [1] was > 380 µM (inactive) and the EC50 (Protein RecA) was > 380 µM (inactive).
With `COc1cc(/C=C/C(=O)Oc2ccc(NC(C)=O)cc2)ccc1C(=O)O/C=C/c1ccccc1` the GI50 (SN12K1) was > 100 µM (inactive), the GI50 (P388) was 18.8 µM (inactive) and the GI50 (P388/ADR) was 8.02 µM (inactive).
With `C=C1C(C)C2C(Cc3ccccc3)NC(=O)C23OC(=O)/C=C\CC(=O)CCC(C)C/C=C/C3C1O` (stereo not drawn) the GI50 (SN12K1) was 0.444 µM (active), the GI50 (P388) was 0.0552 µM (active) and the GI50 (P388/ADR) was 0.224 µM (active).
For `O=C1Sc2sc(=S)sc2SC1c1ccccc1` (stereo not drawn), the GI50 (SN12K1) was 25.1 µM (inactive), the GI50 (P388) was 22.5 µM (inactive) and the GI50 (P388/ADR) was 23.7 µM (inactive).
With `C/C(CC(=O)Nc1cc(C)ccn1)=N\NC(=O)c1ccncc1` the AC50 [1] was 7.32 µM (active) and the EC50 (Protein RecA) was 4.03 µM (active).
With `CN(C)c1cc(N/N=C/c2ccccc2C(F)(F)F)nc(N(C)C)n1` the IC50 [3] was 5.07 µM (active).
With `COc1cc(/C=N/NC(N)=O)c(Br)cc1OCC(=O)Nc1ccccc1C` the AC50 [4] was 17.8 µM (active), the EC50 [5] was > 112 µM (not active) and the EC50 [6] was > 112 µM (not active). The AC50 (Cytochrome P450 1A2) was 14.1 µM (inconclusive).
With `COc1cc(C(=O)NCC(=O)N/N=C/c2cccc(OC(=O)c3ccco3)c2)cc(OC)c1OC` the AC50 [1] was 36 µM (active) and the EC50 (Protein RecA) was 16.6 µM (active).
For `CC(=O)OC1CCC2(C)C(CCC3C2CCC2(C)C(c4ccc(=O)oc4)C(OC(C)=O)CC32O)C1` (stereo not drawn), the GI50 (SN12K1) was 0.0144 µM (active), the GI50 (P388) was 14.6 µM (inactive) and the GI50 (P388/ADR) was 40.9 µM (inactive).
With `CNC=O` the GI50 (SN12K1) was > 10000 µM (inactive), the GI50 (P388) was > 5620 µM (inactive) and the GI50 (P388/ADR) was > 10000 µM (inactive).
In the case of `N[C@H](C(=O)O)[C@@H]1CC(Cl)=NO1` [ACIVICIN], the GI50 (SN12K1) is reported as 1.13 µM (inactive), the GI50 (P388) is reported as 0.242 µM (active) and the GI50 (P388/ADR) is reported as 0.471 µM (active).
With `CO[C@H]1Nc2c(ccc(C)c2O)C(=O)N2C=C(/C=C/C(N)=O)C[C@@H]12` [ANTHRAMYCIN METHYL ETHER] the GI50 (SN12K1) was 0.0197 µM (active), the GI50 (P388) was 0.0436 µM (active) and the GI50 (P388/ADR) was 0.101 µM (active).
For `O=C1C=CC(=C(c2ccc(O)cc2)c2ccc(O)cc2)C=C1` [AURIN], the AC50 [4] was 9.92 µM (active), the IC50 (Nonstructural protein 1) was 59.1 µM (active) and the AC50 (Paired box protein Pax-8) was 8.81 µM (active).
